# Reference: patent publication US10869474B2, “Fungicidal compositions” (UNIVERSITÄT BASEL, priority 2016, dated 2020)
# Read-outs that look alike come from different tables or passages of the source.
# How the values were obtained:
# Plasmopara viticola [1] = test: In vitro bioassay in 96-well plates, minimal inhibitory concentration (MIC100); assay type: cell-based; conditions: for MIC: Plasmopara viticola, read-out: Minimal inhibitory concentration (MIC100) against P. viticola
# Phytophthora infestans = test: microbe, parasite or virus in culture; assay type: cell-based; conditions: complete inhibition of germination, assessed after one day, Table 2 values are means of N independent experiments; for MIC: Phytophthora infestans, 24 h, read-out: Minimal inhibitory concentration (MIC100) against P. infestans, in vitro; for Minimal inhibitory concentration (MIC100) against P. infestans: in vitro
# Venturia inaequalis [2] = test: In vitro bioassay in 96-well plates, minimal inhibitory concentration (MIC100); assay type: cell-based; conditions: for MIC: Venturia inaequalis, 48 h, read-out: Minimal inhibitory concentration (MIC100) against V. inaequalis
# Venturia inaequalis [3] = test: Plant-pathogen bioassay on apple seedlings under semi-controlled conditions; assay type: in vivo; conditions: apple cv. Jonagold seedlings, n = 6, Table 7
# Plasmopara viticola [4] = test: Plant-pathogen bioassay on grapevine seedlings under semi-controlled conditions; assay type: in vivo; conditions: grapevine cv. Chasselas seedlings, n = 6, Table 5
# [5] = in vitro, complete inhibition of zoospore activity, assessed after 2-3 h, Table 2 values are means of N independent experiments
# [6] = in vitro, complete inhibition of germination, assessed after two days, Table 2 values are means of N independent experiments
Structure (SMILES),MIC (Plasmopara viticola [1]) [µg/mL],MIC (Phytophthora infestans) [µg/mL],MIC (Venturia inaequalis [2]) [µg/mL],Efficacy Mean ± SD (Venturia inaequalis [3]; CB 0.1 mg ml^−1) [%],Efficacy Mean ± SD (Venturia inaequalis [3]; CB 1 mg ml^−1) [%],"Efficacy Mean ± SD (Venturia inaequalis [3]; CB 1 mg ml^−1, listed as coniferyl benzoate) [%]","Efficacy against P. viticola, mean ± SD (Plasmopara viticola [4]; pure compound 0.25 mg ml^−1) [%]","Efficacy against P. viticola, mean ± SD (Plasmopara viticola [4]; pure compound 0.5 mg ml^−1) [%]","Efficacy against P. viticola, mean ± SD (Plasmopara viticola [4]; pure compound 1 mg ml^−1) [%]",MIC (Plasmopara viticola [1]; [5]) [µg/mL],Minimal inhibitory concentration (MIC100) against P. viticola (Plasmopara viticola [1]; [5]) [µg/mL],Minimal inhibitory concentration (MIC100) against P. infestans (Phytophthora infestans) [µg/mL],Minimal inhibitory concentration (MIC100) against V. inaequalis (Venturia inaequalis [2]; [6]) [µg/mL],MIC (Venturia inaequalis [2]; [6]) [µg/mL]
"O=C(/C=C/c1ccccc1)OCc1ccccc1 [BC, benzyl cinnamate]",8,500,> 500,,,,,,,,,,,
"COc1cc(/C=C/COC(=O)c2ccccc2)ccc1O [CB, coniferyl benzoate]",,,,4 ± 53,69 ± 12,70,85 ± 14,77 ± 50,99 ± 1,8 to 32,12,21,35,
"O=C(/C=C/c1ccccc1)OC/C=C/c1ccc(O)cc1 [CC, p-coumaryl cinnamate]",,16 to 64,,,,,80 ± 16,95 ± 6,98 ± 1,,38,25,32,16 to 64
